Tests used:
COR-L105 = experiment: cells; format: functional, cell-based; settings: Homo sapiens
Description: SANGER: Inhibition of human COR-L105 cell growth in a cell viability assay.

CP66-MEL = experiment: cells; format: functional, cell-based; settings: Homo sapiens;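 note: growth inhibition of CP66-MEL cells determined in a cell viability assay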
Description: SANGER: Inhibition of human CP66-MEL cell growth in a cell viability assay.

Ca9-22 = experiment: cells; format: functional, cell-based; settings: Homo sapiens;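 note: growth inhibition of Ca9-22 cells, read out with a cell viability assay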
Description: SANGER: Inhibition of human Ca9-22 cell growth in a cell viability assay.

DMS-273 = experiment: cells; format: functional, cell-based; settings: Homo sapiens
Description: SANGER: Inhibition of human DMS-273 cell growth in a cell viability assay.

DOK = experiment: cells; format: functional, cell-based; settings: Homo sapiens;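 note: cell viability assay read-out, values reflect inhibition of cell growth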
Description: SANGER: Inhibition of human DOK cell growth in a cell viability assay.

Detroit 562 = experiment: cells; format: functional, cell-based; settings: Homo sapiens;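 note: growth inhibition of human Detroit 562 cells, read out by a cell viability assay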
Description: SANGER: Inhibition of human Detroit562 cell growth in a cell viability assay.

ECC4 = experiment: cells; format: functional, cell-based, Homo sapiens; settings: Homo sapiens, ECC4;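 note: growth inhibition of ECC4 cells, read out with a cell viability assay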
Description: SANGER: Inhibition of human ECC4 cell growth in a cell viability assay.

EW-24 = experiment: cells; format: functional, cell-based, Homo sapiens; settings: Homo sapiens, EW-24;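 note: human EW-24 cancer cell line, growth inhibition read out via a cell viability assay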
Description: SANGER: Inhibition of human EW-24 cell growth in a cell viability assay.

HCC1395 = experiment: cells; format: functional, cell-based; settings: Homo sapiens;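 note: growth inhibition of HCC1395 cells, read out by a cell viability assay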
Description: SANGER: Inhibition of human HCC1395 cell growth in a cell viability assay.

HCC 2998 = experiment: cells; format: functional, cell-based; settings: Homo sapiens;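 note: growth inhibition of human HCC2998 cells, measured with a cell viability read-out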
Description: SANGER: Inhibition of human HCC2998 cell growth in a cell viability assay.

HT-29 = experiment: cells; format: functional, cell-based; settings: Homo sapiens;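 note: growth inhibition of human HT-29 cells, read out by a cell viability assay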
Description: SANGER: Inhibition of human HT-29 cell growth in a cell viability assay.

HuP-T3 = experiment: cells; format: functional, cell-based; settings: Homo sapiens;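 note: HuP-T3 cell growth inhibition, read out with a cell viability assay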
Description: SANGER: Inhibition of human HuP-T3 cell growth in a cell viability assay.

J82 = experiment: cells; format: functional, cell-based; settings: Homo sapiens;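 note: growth inhibition of J82 cells, read out with a cell viability assay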
Description: SANGER: Inhibition of human J82 cell growth in a cell viability assay.

JIYOYE = experiment: cells; format: functional, cell-based, Homo sapiens; settings: Homo sapiens, JIYOYE
Description: SANGER: Inhibition of human JiyoyeP-2003 cell growth in a cell viability assay.

LB647-SCLC = experiment: cells; format: functional, cell-based, Homo sapiens; settings: Homo sapiens, LB647-SCLC;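 note: cell growth inhibition, read out by a viability assay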
Description: SANGER: Inhibition of human LB647-SCLC cell growth in a cell viability assay.

MC-IXC = experiment: cells; format: functional, cell-based; settings: Homo sapiens;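 note: growth inhibition of MC-IXC cells, read out with a cell viability assay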
Description: SANGER: Inhibition of human MC-IXC cell growth in a cell viability assay.

MDA-MB-157 = experiment: cells; format: functional, cell-based; settings: Homo sapiens
Description: SANGER: Inhibition of human MDA-MB-157 cell growth in a cell viability assay.

MDA-MB-415 = experiment: cells; format: functional, cell-based; settings: Homo sapiens
ME-180 = experiment: cells; format: functional, cell-based; settings: Homo sapiens;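 note: cell viability assay measuring growth inhibition of ME-180 cells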
Description: SANGER: Inhibition of human ME-180 cell growth in a cell viability assay.

NB1 = experiment: cells; format: functional, cell-based, Homo sapiens; settings: Homo sapiens, NB1;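 note: reduction of NB1 cell proliferation, read out with a viability assay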
Description: SANGER: Inhibition of human NB1 cell growth in a cell viability assay.

NCI-H1694 = experiment: cells; format: functional, cell-based, Homo sapiens; settings: Homo sapiens, NCI-H1694;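 note: cell viability assay measuring inhibition of growth in human NCI-H1694 cells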
Description: SANGER: Inhibition of human NCI-H1694 cell growth in a cell viability assay.

NCI-H1963 = experiment: cells; format: functional, cell-based, Homo sapiens; settings: Homo sapiens, NCI-H1963;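 note: cell growth inhibition of the human line, determined with a cell viability assay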
Description: SANGER: Inhibition of human NCI-H1963 cell growth in a cell viability assay.

NCI-H2009 = experiment: cells; format: functional, cell-based; settings: Homo sapiens;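 note: cell viability assay measuring inhibition of NCI-H2009 cell growth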
Description: SANGER: Inhibition of human NCI-H2009 cell growth in a cell viability assay.

NCI-H2347 = experiment: cells; format: functional, cell-based; settings: Homo sapiens;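 note: growth inhibition of the cell line, read out with a cell viability assay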
Description: SANGER: Inhibition of human NCI-H2347 cell growth in a cell viability assay.

NCI-H345 = experiment: cells; format: functional, cell-based, Homo sapiens; settings: Homo sapiens, NCI-H345;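 note: growth inhibition of NCI-H345 cells measured with a cell viability assay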
Description: SANGER: Inhibition of human NCI-H345 cell growth in a cell viability assay.

NCI-H650 = experiment: cells; format: functional, cell-based; settings: Homo sapiens;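 note: growth inhibition of NCI-H650 cells, read out by a viability assay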
Description: SANGER: Inhibition of human NCI-H650 cell growth in a cell viability assay.

NCI-H810 = experiment: cells; format: functional, cell-based; settings: Homo sapiens;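 note: IC50 reflects inhibition of cancer cell line growth, read out with a cell viability assay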
Description: SANGER: Inhibition of human NCI-H810 cell growth in a cell viability assay.

NCI-H889 = experiment: cells; format: functional, cell-based, Homo sapiens; settings: Homo sapiens, NCI-H889;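 note: cell growth inhibition of the cell line, read out with a viability assay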
Description: SANGER: Inhibition of human NCI-H889 cell growth in a cell viability assay.

SNU-16 = experiment: cells; format: functional, cell-based, Homo sapiens; settings: Homo sapiens, SNU-16;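 note: growth inhibition of human SNU-16 cells, determined with a cell viability readout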
Description: SANGER: Inhibition of human NCI-SNU-16 cell growth in a cell viability assay.

PA-1 = experiment: cells; format: functional, cell-based; settings: Homo sapiens;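 note: IC50 for suppression of PA-1 cell proliferation, determined with a cell viability read-out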
Description: SANGER: Inhibition of human PA-1 cell growth in a cell viability assay.

Panc1005 = experiment: cells; format: functional, cell-based; settings: Homo sapiens;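 note: growth inhibition of human PANC-10-05 cells, measured by a cell viability assay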
Description: SANGER: Inhibition of human PANC-10-05 cell growth in a cell viability assay.

RL = experiment: cells; format: functional, cell-based, Homo sapiens; settings: Homo sapiens, RL
Description: SANGER: Inhibition of human RL cell growth in a cell viability assay.

Raji = experiment: cells; format: functional, cell-based, Homo sapiens; settings: Homo sapiens, Raji;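 note: cell viability assay measuring inhibition of Raji cell growth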
Description: SANGER: Inhibition of human Raji cell growth in a cell viability assay.

S-117 = experiment: cells; format: functional, cell-based; settings: Homo sapiens
Description: SANGER: Inhibition of human S-117 cell growth in a cell viability assay.

SAS = experiment: cells; format: functional, cell-based; settings: Homo sapiens;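 note: growth inhibition of SAS cells, read out with a cell viability assay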
Description: SANGER: Inhibition of human SAS cell growth in a cell viability assay.

SF-295 = experiment: cells; format: functional, cell-based; settings: Homo sapiens;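 note: growth inhibition of SF-295 cells, read out with a cell viability assay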
Description: SANGER: Inhibition of human SF295 cell growth in a cell viability assay.

SK-N-AS = experiment: cells; format: functional, cell-based; settings: Homo sapiens;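 note: growth inhibition of human SK-N-AS cells, measured with a cell viability assay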
Description: SANGER: Inhibition of human SK-N-AS cell growth in a cell viability assay.

ST486 = experiment: SANGER: Inhibition of human ST486 cell growth in a cell viability assay.; format: functional, cell-based; settings: Homo sapiens, ST486
SW1088 = experiment: cells; format: functional, cell-based; settings: Homo sapiens;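 note: growth inhibition of human SW1088 cells, read out by a cell viability assay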
Description: SANGER: Inhibition of human SW1088 cell growth in a cell viability assay.

SW1990 = experiment: cells; format: functional, cell-based; settings: Homo sapiens
Description: SANGER: Inhibition of human SW1990 cell growth in a cell viability assay.

SW837 = experiment: cells; format: functional, cell-based; settings: Homo sapiens;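 note: growth inhibition of SW837 cells, determined with a cell viability assay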
Description: SANGER: Inhibition of human SW837 cell growth in a cell viability assay.

TALL-1 = experiment: cells; format: functional, cell-based, Homo sapiens; settings: Homo sapiens, TALL-1;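 note: growth inhibition of cultured human TALL-1 cells, read out by a cell viability assay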
Description: SANGER: Inhibition of human TALL-1 cell growth in a cell viability assay.

5637 = experiment: cells; format: functional, cell-based; settings: Homo sapiens
Description: SANGER: Inhibition of human 5637 cell growth in a cell viability assay.

639-V = experiment: cells; format: functional, cell-based; settings: Homo sapiens;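 note: growth inhibition of 639-V cells, read out with a cell viability assay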
Description: SANGER: Inhibition of human 639-V cell growth in a cell viability assay.

A 172 = experiment: cells; format: functional, cell-based; settings: Homo sapiens;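 note: growth inhibition of A172 cells, measured with a cell viability readout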
Description: SANGER: Inhibition of human A172 cell growth in a cell viability assay.

A2780 = experiment: cells; format: functional, cell-based; settings: Homo sapiens;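 note: growth inhibition of A2780 cells, read out with a cell viability assay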
Description: SANGER: Inhibition of human A2780 cell growth in a cell viability assay.

ABC-1 = experiment: cells; format: functional, cell-based; settings: Homo sapiens;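 note: growth inhibition of human ABC-1 cells, read out by a cell viability assay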
Description: SANGER: Inhibition of human ABC-1 cell growth in a cell viability assay.

ACHN = experiment: cells; format: functional, cell-based; settings: Homo sapiens;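 note: cell viability read-out used to gauge how strongly growth of human ACHN cells is suppressed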
Description: SANGER: Inhibition of human ACHN cell growth in a cell viability assay.

ARH-77 = experiment: cells; format: functional, cell-based, Homo sapiens; settings: Homo sapiens, ARH-77;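 note: growth inhibition of ARH-77 cells, read out by a cell viability assay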
Description: SANGER: Inhibition of human ARH-77 cell growth in a cell viability assay.

CAL-148 = experiment: cells; format: functional, cell-based, Homo sapiens; settings: Homo sapiens, CAL-148
Description: SANGER: Inhibition of human CAL-148 cell growth in a cell viability assay.

CAL-27 = experiment: cells; format: functional, cell-based; settings: Homo sapiens;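 note: Viability-based readout, IC50 reflecting inhibition of CAL-27 cell growth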
Description: SANGER: Inhibition of human CAL-27 cell growth in a cell viability assay.

TE-441-T = experiment: cells; format: functional, cell-based, Homo sapiens; settings: Homo sapiens, TE-441-T
Description: SANGER: Inhibition of human TE-441-T cell growth in a cell viability assay.

UMUC3 = experiment: cells; format: functional, cell-based; settings: Homo sapiens;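 note: growth inhibition of human UM-UC-3 cells, read out with a cell viability assay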
Description: SANGER: Inhibition of human UM-UC-3 cell growth in a cell viability assay.

VMRC-RCZ = experiment: cells; format: functional, cell-based; settings: Homo sapiens
Description: SANGER: Inhibition of human VMRC-RCZ cell growth in a cell viability assay.

YKG-1 = experiment: cells; format: functional, cell-based; settings: Homo sapiens;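 note: cell growth inhibition, read out with a viability assay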
Description: SANGER: Inhibition of human YKG-1 cell growth in a cell viability assay.

CESS = experiment: SANGER: Inhibition of human CESS cell growth in a cell viability assay.; format: functional, cell-based; settings: Homo sapiens, CESS

CCCCCCCCCCCC1=C(O)C(=O)C=C(O)C1=O [EMBELIN]
IC50 (COR-L105): 22300 nM | IC50 (CP66-MEL): 4510 nM | IC50 (Ca9-22): 12400 nM | IC50 (DMS-273): 4060 nM | IC50 (DOK): 11800 nM | IC50 (Detroit 562): 11500 nM | IC50 (ECC4): 23800 nM | IC50 (EW-24): > 32000 nM | IC50 (HCC1395): > 32000 nM | IC50 (HCC 2998): 6800 nM | IC50 (HT-29): 7520 nM | IC50 (HuP-T3): > 32000 nM | IC50 (J82): 11800 nM | IC50 (JIYOYE): 6940 nM | IC50 (LB647-SCLC): > 32000 nM | IC50 (MC-IXC): 5390 nM | IC50 (MDA-MB-157): 6880 nM | IC50 (MDA-MB-415): 30000 nM | IC50 (ME-180): 30600 nM | IC50 (NB1): > 32000 nM | IC50 (NCI-H1694): > 32000 nM | IC50 (NCI-H1963): > 32000 nM | IC50 (NCI-H2009): 11900 nM | IC50 (NCI-H2347): 7480 nM | IC50 (NCI-H345): > 32000 nM | IC50 (NCI-H650): 16400 nM | IC50 (NCI-H810): 7730 nM | IC50 (NCI-H889): > 32000 nM | IC50 (SNU-16): > 32000 nM | IC50 (PA-1): 2320 nM | IC50 (Panc1005): > 32000 nM | IC50 (RL): > 32000 nM | IC50 (Raji): 10500 nM | IC50 (S-117): 3630 nM | IC50 (SAS): 16800 nM | IC50 (SF-295): 1750 nM | IC50 (SK-N-AS): 13800 nM | IC50 (ST486): 8300 nM | IC50 (SW1088): 16700 nM | IC50 (SW1990): 6490 nM | IC50 (SW837): 18000 nM | IC50 (TALL-1): > 32000 nM | IC50 5637: 13200 nM | IC50 (639-V): > 32000 nM | IC50 (A 172): 8780 nM | IC50 (A2780): 13200 nM | IC50 (ABC-1): > 32000 nM | IC50 (ACHN): > 32000 nM | IC50 (ARH-77): 16400 nM | IC50 (CAL-148): > 32000 nM | IC50 (CAL-27): 13100 nM | IC50 (TE-441-T): > 32000 nM | IC50 (UMUC3): 10100 nM | IC50 (VMRC-RCZ): 9470 nM | IC50 (YKG-1): 8880 nM | IC50 (CESS): 6240 nM

C/C(=C\c1csc(C)n1)[C@@H]1C[C@@H]2O[C@]2(C)CCC[C@H](C)[C@H](O)[C@@H](C)C(=O)C(C)(C)[C@@H](O)CC(=O)O1 [PATUPILONE]
IC50 (COR-L105): 9.54 nM | IC50 (CP66-MEL): 11.7 nM | IC50 (Ca9-22): 1.13 nM | IC50 (DMS-273): 1.62 nM | IC50 (DOK): > 32 nM | IC50 (Detroit 562): 1.4 nM | IC50 (ECC4): > 32 nM | IC50 (EW-24): > 32 nM | IC50 (HCC1395): > 32 nM | IC50 (HCC 2998): 1.05 nM | IC50 (HT-29): 0.499 nM | IC50 (HuP-T3): 3.81 nM | IC50 (J82): 1.41 nM | IC50 (JIYOYE): 7.81 nM | IC50 (LB647-SCLC): 3.1 nM | IC50 (MC-IXC): 3.06 nM | IC50 (MDA-MB-157): > 32 nM | IC50 (MDA-MB-415): 20 nM | IC50 (ME-180): 5.74 nM | IC50 (NB1): 14.6 nM | IC50 (NCI-H1694): > 32 nM | IC50 (NCI-H1963): 12 nM | IC50 (NCI-H2009): 0.862 nM | IC50 (NCI-H2347): > 32 nM | IC50 (NCI-H345): > 32 nM | IC50 (NCI-H650): 0.17 nM | IC50 (NCI-H810): 0.322 nM | IC50 (NCI-H889): > 32 nM | IC50 (SNU-16): 31 nM | IC50 (PA-1): 0.174 nM | IC50 (Panc1005): 1.12 nM | IC50 (RL): > 32 nM | IC50 (Raji): > 32 nM | IC50 (S-117): > 32 nM | IC50 (SAS): > 32 nM | IC50 (SF-295): 1.92 nM | IC50 (SK-N-AS): > 32 nM | IC50 (ST486): 0.721 nM | IC50 (SW1088): 5.79 nM | IC50 (SW1990): > 32 nM | IC50 (SW837): 2.47 nM | IC50 (TALL-1): > 32 nM | IC50 5637: 0.638 nM | IC50 (639-V): 0.218 nM | IC50 (A 172): 1.92 nM | IC50 (A2780): 2.09 nM | IC50 (ABC-1): 1.68 nM | IC50 (ACHN): 0.749 nM | IC50 (ARH-77): 6.13 nM | IC50 (CAL-148): 6.26 nM | IC50 (CAL-27): 1.39 nM | IC50 (TE-441-T): 26.3 nM | IC50 (UMUC3): 1.85 nM | IC50 (VMRC-RCZ): 0.136 nM | IC50 (YKG-1): 1.24 nM | IC50 (CESS): 3.38 nM

Source: ChEMBL document CHEMBL1201861, “Genomics of Drug Sensitity in Cancer screening data, Wellcome Trust Sanger Institute”
